{"source": "PubChem BioAssay AID1963982", "about": "(Molecular Pharmacology Branch, DTP, NCI, 2024)", "system": "313798-341-R-J2-PDC spheroids, viability", "test": "Anticancer human tumor 313798-341-R-J2-PDC patient-derived cervical squamous cell carcinoma cell line growth inhibition [PI3K]", "details": "spheroids with HUVEC and MSC; for pIC50: curve of first compound; for viability, T/C: stronger effect = lower value", "how_it_was_run": "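Multi-cell spheroids combine tumor cells with HUVEC and human MSCs, treated with targeted agents alone or with inavolisib, alpelisib, duvelisib or copanlisib. Concentrations fall in half-log steps from at or near clinical Cmax, or from 10 microM where Cmax is unknown; viability read-out.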", "note": "pIC50: −log10 of the molar value.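 Also: spheroids exposed to compounds for seven days.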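 For viability, T/C in this document: 100% = DMSO vehicle control viability.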"}
{"smiles": "Cn1ncnc1[C@H]1c2n[nH]c(=O)c3cc(F)cc(c23)N[C@@H]1c1ccc(F)cc1", "note": "+ Cc1nc(NC(=O)N2CCCC2C(N)=O)sc1-c1ccnc(C(C)(C)C(F)(F)F)c1", "values": [{"measurement": "pIC50", "setting": "second compound 0.0316 µM", "result": "< 7.00"}, {"measurement": "pIC50", "setting": "second compound 0.1 µM", "result": "< 7.00"}, {"measurement": "pIC50", "setting": "second compound 0.316 µM", "result": "< 7.00"}, {"measurement": "pIC50", "setting": "second compound 1 µM", "result": "< 7.00"}, {"measurement": "pIC50", "setting": "second compound 3.16 µM", "result": "< 7.00"}, {"measurement": "pIC50", "setting": "second compound 10 µM", "result": "> 9.50"}, {"measurement": "viability, T/C", "setting": "second compound 0.0316 µM, first compound 0.000316 µM", "result": 112, "unit": "%"}, {"measurement": "viability, T/C", "setting": "second compound 0.0316 µM, first compound 0.001 µM", "result": 90, "unit": "%"}, {"measurement": "viability, T/C", "setting": "second compound 0.0316 µM, first compound 0.00316 µM", "result": 97.6, "unit": "%"}, {"measurement": "viability, T/C", "setting": "second compound 0.0316 µM, first compound 0.01 µM", "result": 96.1, "unit": "%"}, {"measurement": "viability, T/C", "setting": "second compound 0.0316 µM, first compound 0.0316 µM", "result": 93.9, "unit": "%"}, {"measurement": "viability, T/C", "setting": "second compound 0.0316 µM, first compound 0.1 µM", "result": 95.7, "unit": "%"}, {"measurement": "viability, T/C", "setting": "second compound 0.1 µM, first compound 0.000316 µM", "result": 98.7, "unit": "%"}, {"measurement": "viability, T/C", "setting": "second compound 0.1 µM, first compound 0.001 µM", "result": 103, "unit": "%"}, {"measurement": "viability, T/C", "setting": "second compound 0.1 µM, first compound 0.00316 µM", "result": 98.2, "unit": "%"}, {"measurement": "viability, T/C", "setting": "second compound 0.1 µM, first compound 0.01 µM", "result": 97.8, "unit": "%"}, {"measurement": "viability, T/C", "setting": "second compound 0.1 µM, first compound 0.0316 µM", "result": 92.6, "unit": "%"}, {"measurement": "viability, T/C", "setting": "second compound 0.1 µM, first compound 0.1 µM", "result": 87, "unit": "%"}, {"measurement": "viability, T/C", "setting": "second compound 0.316 µM, first compound 0.000316 µM", "result": 97.7, "unit": "%"}, {"measurement": "viability, T/C", "setting": "second compound 0.316 µM, first compound 0.001 µM", "result": 100, "unit": "%"}, {"measurement": "viability, T/C", "setting": "second compound 0.316 µM, first compound 0.00316 µM", "result": 110, "unit": "%"}, {"measurement": "viability, T/C", "setting": "second compound 0.316 µM, first compound 0.01 µM", "result": 90.7, "unit": "%"}, {"measurement": "viability, T/C", "setting": "second compound 0.316 µM, first compound 0.0316 µM", "result": 102, "unit": "%"}, {"measurement": "viability, T/C", "setting": "second compound 0.316 µM, first compound 0.1 µM", "result": 80.8, "unit": "%"}, {"measurement": "viability, T/C", "setting": "second compound 1 µM, first compound 0.000316 µM", "result": 92.2, "unit": "%"}, {"measurement": "viability, T/C", "setting": "second compound 1 µM, first compound 0.001 µM", "result": 86.3, "unit": "%"}, {"measurement": "viability, T/C", "setting": "second compound 1 µM, first compound 0.00316 µM", "result": 82.9, "unit": "%"}, {"measurement": "viability, T/C", "setting": "second compound 1 µM, first compound 0.01 µM", "result": 72.5, "unit": "%"}, {"measurement": "viability, T/C", "setting": "second compound 1 µM, first compound 0.0316 µM", "result": 79.1, "unit": "%"}, {"measurement": "viability, T/C", "setting": "second compound 1 µM, first compound 0.1 µM", "result": 71.5, "unit": "%"}, {"measurement": "viability, T/C", "setting": "second compound 3.16 µM, first compound 0.000316 µM", "result": 59.6, "unit": "%"}, {"measurement": "viability, T/C", "setting": "second compound 3.16 µM, first compound 0.001 µM", "result": 61, "unit": "%"}, {"measurement": "viability, T/C", "setting": "second compound 3.16 µM, first compound 0.00316 µM", "result": 59, "unit": "%"}, {"measurement": "viability, T/C", "setting": "second compound 3.16 µM, first compound 0.01 µM", "result": 54.9, "unit": "%"}, {"measurement": "viability, T/C", "setting": "second compound 3.16 µM, first compound 0.0316 µM", "result": 59.6, "unit": "%"}, {"measurement": "viability, T/C", "setting": "second compound 3.16 µM, first compound 0.1 µM", "result": 49.4, "unit": "%"}, {"measurement": "viability, T/C", "setting": "second compound 10 µM, first compound 0.000316 µM", "result": 35.9, "unit": "%"}, {"measurement": "viability, T/C", "setting": "second compound 10 µM, first compound 0.001 µM", "result": 36.8, "unit": "%"}, {"measurement": "viability, T/C", "setting": "second compound 10 µM, first compound 0.00316 µM", "result": 38.2, "unit": "%"}, {"measurement": "viability, T/C", "setting": "second compound 10 µM, first compound 0.01 µM", "result": 34.2, "unit": "%"}, {"measurement": "viability, T/C", "setting": "second compound 10 µM, first compound 0.0316 µM", "result": 33.2, "unit": "%"}, {"measurement": "viability, T/C", "setting": "second compound 10 µM, first compound 0.1 µM", "result": 28.3, "unit": "%"}]}
